Data on two compounds can be found in PMC10088020, “AA16 Oxidoreductases Boost Cellulose-Active AA9 Lytic Polysaccharide Monooxygenases from Myceliophthora thermophila” (ACS Catalysis, 2023).

In one test the target is T1, AnAA16A (Aspergillus nidulans, UniProt Q5BFA2).
T1 construct: gene ANIA_00778; catalytic domain; C-terminal extension (residues 199-306) removed, native signal peptide used for secretion; C-terminal His-tag cut with TEV; Pichia pastoris X-33; N-terminal His not methylated; Cu(II)-saturated
T1 sequence (Q5BFA2 20-198): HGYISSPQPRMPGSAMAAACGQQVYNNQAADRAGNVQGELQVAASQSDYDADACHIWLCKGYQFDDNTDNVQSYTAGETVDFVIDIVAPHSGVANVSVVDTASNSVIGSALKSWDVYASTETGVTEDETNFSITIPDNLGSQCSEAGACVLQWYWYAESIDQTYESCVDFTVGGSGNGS
Briefly: H2O2 production, ferric-xylenol orange assay. The test is classed as biochemical. To be noted: 1 mM Pyg as reductant, O2; pH 5.0, 30 °C.

For test [1], the target named is T2, MtAA16A (Thermothelomyces thermophilus, UniProt G2QH80).
T2 construct: gene MYCTH_2306267; mature secreted protein, homologously produced in M. thermophila C1; signal peptide removed; N-terminal His methylated; Cu(II)-saturated
Put plainly: thermal shift (nDSF). To be noted: may reflect reduction of the active-site copper rather than binding (authors). On the technique in general: DSF heats the sample and reads unfolding from a dye or from intrinsic fluorescence.

Test [2] addresses T2, MtAA16A. Put plainly: H2O2-driven oxidation to coerulignone ([…],6-DMP assay). In kind it is biochemical. The note with it: co-substrate H2O2; Cu(II)-saturated enzyme.

T2 sequence (G2QH80 entry or part of it): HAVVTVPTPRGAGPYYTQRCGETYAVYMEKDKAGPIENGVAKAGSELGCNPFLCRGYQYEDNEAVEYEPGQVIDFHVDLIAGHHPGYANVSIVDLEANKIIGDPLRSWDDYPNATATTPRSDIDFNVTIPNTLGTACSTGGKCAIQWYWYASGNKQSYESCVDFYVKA

For `Oc1cccc(O)c1O` [pyrogallol], the “H2O2 production, ferric-xylenol orange assay” value at AnAA16A is “we observed accumulation of H2O2 in MtAA16A-Pyg and AnAA16A-Pyg samples”. With `COc1cccc(OC)c1O` [syringol, 2,6-dimethoxyphenol], on MtAA16A [1], the thermal stabilization result is “syringol induced significant thermal stabilization (Figure S8), which is consistent with binding”. Besides, the “H2O2-driven oxidation to coerulignone (2,6-DMP assay)” value at MtAA16A [2] is “MtAA16A is a copper-dependent enzyme able to oxidize syringol in the presence of H2O2”.
